“And” between values parts separate entries of the source, which are not always exact repeats. Identical values can stand only once. Marks after values point to notes of the source that are not given here.
Legend:
[1] = system: AVO-EM in irradiated MCF-7 cells; assay: Electron microscopy of AVO-EM; type: cell-based, human; settings: 3-methyladenine 5 mM; 10 Gy; without it 94%
Experimental: Cell processing for electron microscopy and staining with N-(3-(2,4-dinitrophenyl)-N-(3-aminopropyl))methylamine dihydrochloride (DAMP; Molecular Probes, Eugene, Oreg.) was performed as set forth in Anderson et al., 1984, Proc. Natl. Acad. Sci. U.S.A. 81:4838-4842 and Dunn et al., 1990, J. Cell Biol. 110:1935-1945. The fraction of the cytoplasmic volume occupied by AVO (fractional volume of AVO) was quantified from electron micrographs according to Dunn and Lenk et al., (Dunn et al., 1990, J. Cell Biol. 110:1935-1945; Lenk et al., 1992, J. Cell Biol. 118:301-308). Digital Images of the micrographs were obtained using an Epson ES-1200S flat bed scanner with Adobe Photoshop version 5. The fractional volume was calculated with Image Pro Plus Version 3 and expressed as a percentage of the total cytoplasmic volume.

[2] = system: acidic vesicular organelles (AVO) in MCF-7 cells; assay: Mean red/green fluorescence ratio in acridine orange stained cells by flow cytometry; type: cell-based, human
Experimental: bFGF was added to cultures of MCF-7 cells at 10 ng/ml for 48 hours. TNF was added at 2.3 nM for 48 hours. PMA was added for 1 hour at a concentration of 30 nM, followed by rinsing of the cells and incubation for an additional 48 hours.
Cell staining was performed according to standard techniques (Arvan et al., 1984, J. Bio. Chem. 259:13567-13572; Mains and May, 1988, J. Biol. Chem. 263:7887-7894; Traganos and Darzynkiewicz, Methods in Cell Biology 41:185-194, Academic Press). Acridine orange (Polysciences, Warrington, Pa.) was added to a final concentration of 1 μg/ml for 15 minutes. Bafilomycin A1 (Sigma Chemical Co., St. Louis, Mo.) was dissolved in DMSO and added to the cells 30 minutes prior to the addition of acridine orange. LysoSensor Blue DND-167 (Molecular Probes, Eugene, Oreg.) at a final concentration of 10 μM was added for 8 minutes. Pictures were obtained with a fluorescence microscope (Olympus BH-2 RFCA), equipped with a mercury-100 W lamp, 490 nm band pass blue excitation filters, 500 nm dichroic mirror and a 515 nm long pass barrier filter. Images of control and irradiated cells were recorded on Kodak Elite II 100 ASA film for color slides by 4 seconds exposure.
In acridine orange stained cells the cytoplasm and nucleolus fluoresce bright green and dim red, while acidic compartments fluoresce bright red (Mains and May, 1988, J. Biol. Chem. 263:7887-7894; Traganos and Darzynkiewicz, Methods in Cell Biology Vol. 41, pp. 185-194, Academic Press). The intensity of the red fluorescence is proportional to the degree of acidity and/or the volume of the cellular acidic compartment. Therefore, by comparing the mean red/green fluorescence ratio within different cell populations, a change in the degree of acidity and/or the fractional volume of the cellular acidic compartment could be measured. Cells were stained with acridine orange for […], removed from the plate with trypsin-EDTA and collected in phenol red-free growth medium. Green (510-530 nm) and red (>650 nm) Fluoresence emission from 10,000 cells illuminated with blue (488 nm) excitation light was measured with a FACSCalibur from Becton Dickinson (San Jose, Calif.) using CellQuest software. The red to green fluorescence ratio for individual cells was calculated using FlowJo software (TREE STAR, Inc., San Carlos, Calif.). To control for possible effect of trypsinization on the measured red to green fluorescence ratio, the ratios were compared by flow cytometry with those obtained with a Laser Scanning Microscope (LSM510 from Zeiss). Stained cells, grown on cover glass, were illuminated with a 488 nm argon laser beam. The red (>650 nm) to green (505-545 nm) fluorescence ratio of an entire image was obtained using software LSM 510 version 2.01 SP2. These measurements yielded similar results to those obtained with flow cytometry. All determinations of red to green fluorescence ratio reported in this section were obtained via flow cytometry.

[3] = system: MCF-7 (human breast adenocarcinoma); assay: Clonogenic survival (surviving fraction) of MCF-7 cells after radiation or chemotherapeutic agent; type: cell-based; settings: for Surviving Fraction 100 nM Adriamycin / Surviving Fraction: Table 16
Experimental: (§1) MCF-7 (human breast adenocarcinoma), LoVo (human colon adenocarcinoma) and LNCaP (human prostate carcinoma) were obtained from the American Type Culture Collection. Cells were maintained as described in Paglin et al., 1997, Biochem. Biophs. Res. Comm. 237:678-684). Irradiation was carried out 48 hours post-plating (T0) at room temperature using a Cs-137 irradiator (Sheperd Mark-I, model 68, SN643) at a dose rate of 2.43-2.32 Gy/min. Bovine aortic endothelial cells were grown and treated with H2O2 as described in Haimovitz-Friedman et al., 1994, J. Exp. Med. 180:525-535 and Verhij et al., 1996, Nature 380:75-79. Phorbol 12-myristate 13-acetate (PMA; Alexis Biochemicals Corp., San Diego, Calif.) was dissolved in dimethyl sulfoxide (DMSO) and added to cells for the duration of one hour. The final DMSO concentration was 0.03%. The cells were then rinsed with warm growth medium before being returned to the incubator for an additional 48 hours.
(§2) Cells were plated in growth medium at a density of 30-90 cells per square centimeter and irradiated 22 hours later. Each experimental condition was done in quintet or triplicate. Cells were irradiated at room temperature in Cs-137 Irradiator (Sheperd Mark-I, Model 68, SN 643) at a rate of 2.43-2.32 Gy/min. […] For determination of their red to green ratio, colonies were processed as described above. For determination of surviving fractions cells were stained with crystal violet and colonies containing 50 cells or more were counted with a dissecting microscope. The surviving fraction was defined as the ratio between the plating efficiencies of irradiated and non-irradiated cells and was calculated at each dose level according to Hall and Phill (1994, […] for the Radiologist, 4th Edition, J. Lippincott Co., Philadelphia).

[4] = system: LoVo (human colon adenocarcinoma); assay: Clonogenic survival (surviving fraction) of LoVo cells after radiation or chemotherapeutic agent; type: cell-based
Experimental: as §1, §2

[5] = system: MCF-7 (human breast adenocarcinoma); assay: Clonogenic survival (surviving fraction) of MCF-7 cells after radiation or chemotherapeutic agent; type: cell-based
[6] = system: AVO in MCF-7 cells; assay: Vital staining with acridine orange, fluorescence microscopy; type: cell-based, human; settings: pre-incubation with 300 μM chloroquine
Experimental: Acridine orange (Polysciences, Warrington, Pa.) was added to a final concentration of 1 μg/ml for 15 minutes. […] Pictures were obtained with a fluorescence microscope (Olympus BH-2 RFCA), equipped with a mercury-100 W lamp, 490 nm band pass blue excitation filters, 500 nm dichroic mirror and a 515 nm long pass barrier filter. Images of control and irradiated cells were recorded on Kodak Elite II 100 ASA film for color slides by 4 seconds exposure.

## Cn1cnc(N)c2ncnc1-2 [3-methyladenine]
[1]
  fraction of cells containing AVO-EM: 22%
[2]; 3-methyladenine 5 mM, 48 hours following radiation with 10 Gy, without it 1.77±0.01, n=3
  red to green ratio: 1.15±0.01

## COc1cccc2c1C(=O)c1c(O)c3c(c(O)c1C2=O)C[C@@](O)(C(=O)CO)C[C@@H]3O[C@H]1C[C@H](N)[C@H](O)[C@H](C)O1 [Adriamycin]
[3]; MCF-7, 100 nM Adriamycin alone (Salicilyhalamide 0 nM)
  Surviving Fraction 100 nM Adriamycin: 0.88 ± 0.08
[4]; Adriamycin 50 nM alone
  Surviving Fraction Without Bafilomycin: 0.84 ± 0.01
[4]; Adriamycin 100 nM alone
  Surviving Fraction Without Bafilomycin: 0.77 ± 0.01
[4]; Adriamycin 150 nM alone
  Surviving Fraction Without Bafilomycin: 0.47 ± 0.02
[4]; Table 17, Adriamycin 100 nM alone, 48 hours
  survival, Adriamycin 100 nM: 0.94 ± 0.1
[5]; Table 15, 100 nM adriamycin alone (Bafilomycin 0 nM)
  survival, column Adriamycin: 0.88 ± 0.08

## C[C@]12CC[C@@H]3c4ccc(O)cc4CC[C@H]3[C@@H]1CC[C@@H]2O [Estradiol]
[2]; Estradiol 10^−9 M alone
  Fold increase of Red:Green: 1 fold
[2]; estradiol 10^−9 M with tamoxifen, Table 23
  inhibition of the effect of tamoxifen on appearance of acidic vesicular organelles: 50%

## COc1cc([C@@H]2c3cc4c(cc3[C@@H](O[C@@H]3O[C@@H]5CO[C@@H](C)O[C@H]5[C@H](O)[C@H]3O)[C@H]3COC(=O)[C@H]23)OCO4)cc(OC)c1O [Etoposide]
[3]; Table 18, MCF-7, Etoposide 0.05 μg/ml alone
  cell survival (head of column empty): (0.79; 0.77) 0.78*
[4]; Table 19, Etoposide 0.05 μg/ml alone
  cell survival (head of column empty): 0.78 ± 0.05

## CCCCCCCCCCCCCC(=O)O[C@@H]1[C@@H](C)[C@@]2(O)[C@@H](C=C(CO)C[C@]3(O)C(=O)C(C)=C[C@@H]23)[C@@H]2C(C)(C)[C@]12OC(C)=O [PMA, Phorbol 12-myristate 13-acetate]
[2]; MCF-7, PMA 30 nM for 1 hour, rinsed, additional 48 hours
  Fold Increase in Red: Green: 1.7±0.3 fold and 1.7 ± 0.3 (n = 3) fold

## CO[C@H]1C[C@@H]2CC[C@@H](C)[C@@](O)(O2)C(=O)C(=O)N2CCCC[C@H]2C(=O)O[C@H]([C@H](C)C[C@@H]2CC[C@@H](O)[C@H](OC)C2)CC(=O)[C@H](C)/C=C(\C)[C@@H](O)[C@@H](OC)C(=O)[C@H](C)C[C@H](C)/C=C/C=C/C=C/1C [Rapamycin, rapamycin]
[2]; Table 21, MCF-7, 20 nM rapamycin
  Fold Increase in Red:Green 48 hrs: 1.96 fold
[2]; Table 21, MCF-7, 50 nM rapamycin
  Fold Increase in Red:Green 48 hrs: 2.31 fold
[2]; Table 22, Rapamycin 10 nM
  Fold Increase in Red:Green 24 hrs: 1.7 fold
  Fold Increase in Red:Green 48 hrs: 1.6 fold
[2]; Table 22, Rapamycin 20 nM
  Fold Increase in Red:Green 24 hrs: 1.7 fold
  Fold Increase in Red:Green 48 hrs: 1.4 fold

## CC/C=C\C=C/C(=O)N/C=C/C[C@H]1C[C@@H](O)[C@@H](C)C/C=C/Cc2cccc(O)c2C(=O)O1 [Salicylihalamide A]
[3]; 25 nM salicylihalamide A, 3 Gy
  decrease of survival of irradiated cells: 30%
[3]; Salicylihalamide A 12.5 nM
  Surviving Fraction 0 Gy: 1.14 ± 0.07
[3]; Salicylihalamide A 12.5 nM, 3 Gy
  Surviving Fraction 3 Gy: 0.38 ± 0.03
[3]; Salicylihalamide A 25 nM
  Surviving Fraction 0 Gy: 0.92 ± 0.08
[3]; Salicylihalamide A 25 nM, listed as salicylihalamide A
  Surviving Fraction 0 Gy: did not significantly affect
[3]; Salicylihalamide A 25 nM, 3 Gy
  Surviving Fraction 3 Gy: 0.32 ± 0.03
[3]; Salicylihalamide A 50 nM
  Surviving Fraction 0 Gy: 0.72 ± 0.09
[3]; Salicylihalamide A 50 nM, 3 Gy
  Surviving Fraction 3 Gy: 0.22 ± 0.04
[3]; Salicylihalamide A 100 nM
  Surviving Fraction 0 Gy: 0.53 ± 0.03
[3]; Salicylihalamide A 100 nM, 3 Gy
  Surviving Fraction 3 Gy: 0.11 ± 0.02
[3]; MCF-7, Salicilyhalamide 25 nM + 100 nM Adriamycin
  Surviving Fraction 100 nM Adriamycin: 0.79 ± 0.05
[3]; MCF-7, Salicilyhalamide 25 nM alone
  Surviving Fraction: 1.03 ± 0.03
[3]; MCF-7, Salicilyhalamide 50 nM + 100 nM Adriamycin
  Surviving Fraction 100 nM Adriamycin: 0.66 ± 0.04
[3]; MCF-7, Salicilyhalamide 50 nM alone, listed as Salicilyhalamide
  Surviving Fraction: 0.95 ± 0.01
[3]; MCF-7, Salicilyhalamide 50 nM alone, listed as salicylihalamide A
  Surviving Fraction: minimal effect
[3]; MCF-7, Salicilyhalamide 100 nM + 100 nM Adriamycin
  Surviving Fraction 100 nM Adriamycin: 0.57 ± 0.01
[3]; MCF-7, Salicilyhalamide 100 nM alone
  Surviving Fraction: 0.78 ± 0.04
[5]; 50 nM salicylihalamide A in combination with 100 nM Adriamycin
  decrease of survival: 25%

## CC/C(=C(\c1ccccc1)c1ccc(OCCN(C)C)cc1)c1ccccc1 [Tamoxifen]
[2]; Tamoxifen 2 × 10^−6 M
  Fold increase of Red:Green: 1.6 fold
[2]; Tamoxifen 2 × 10^−6 M + Estradiol 10^−9 M
  Fold increase of Red:Green: 1.33 fold
[2]; Tamoxifen 10^−6 M
  Fold increase of Red:Green: 1.5 fold
[2]; Tamoxifen 10^−6 M + Estradiol 10^−9 M
  Fold increase of Red:Green: 1.25 fold

## CCN(CC)CCCC(C)Nc1ccnc2cc(Cl)ccc12 (stereo not drawn) [chloroquine]
[6]
  acridine orange accumulation in the AVO: inhibited acridine orange accumulation

## bFGF: cytokine tested as inducer of acidic organelle formation
[2]; MCF-7, bFGF 10 ng/ml for 48 hours
  Fold Increase in Red: Green: 2.23 ± 0.18 (n = 3) fold

## z-VAD-fmk
[2]; z-VAD-fmk 50 μM added 1 hour before irradiation, 10 Gy, 24 hours following irradiation
  mean red to green fluorescence ratio: 2.5 ± 0.04
[2]; z-VAD-fmk 50 μM added 1 hour before, unirradiated, 24 hours
  mean red to green fluorescence ratio: 1.4 ± 0.07
